How the values were obtained:
[1] = tested on: Heliothis virescens larvae; test: Systemic activity of seed applied furathiocarb, larvae caged on maize leaves; assay type: in vivo
Description: This example includes the results of three test series using different maize cultivars F7 x F2, Centaurus and Arjuna. The basic experimental procedure is that used in example 20 therefore only differences are mentioned here.
Seeds of the hybrid F7 x F2 are treated with 10 g/kg furathiocarb in either PVAc/PVAl or association polymer systems. Treatment techniques are described earlier. Seeds are sown in 4 soil types: 100% quartz sand, 98% quartz sand plus 2% peat, 95% quartz sand plus 5% peat and 90% quartz sand plus 10% peat. Soil moisture is maintained at 10% for the 100% and 98% sand mixtures and at 20% for the other two soil types. All percentages are based on dry weight.
Insecticidal activity is tested by caging 5 first instar Heliothis virescens larvae on each leaf of the maize plants. The insects are caged on the leaves at 9 and 14 days after planting and are allowed to feed for 5 and 3 days respectively. The test is evaluated by counting surviving larvae and by visually assessing feeding damage. To achieve this consistently, the leaf is compared to standard diagrams and the percentage eaten is estimated as 0, 1, 2, 5, 10, 20 or 50% or the total area.
Seeds of the hybrid Centaurus are treated with both 4 and 10 g/kg furathiocarb in either PVAc/PVAl or association polymer systems. Seeds are sown in two soil types either earth from Stein, Canton Aargau, Switzerland (exact description given earlier) or in a 98% sand 2% peat mixture. Moisture content is 20% of dry weight for the former and 10% for the latter. H. virescens is again used to test insecticidal activity. The larvae are caged on the leaves either 8 or 14 days after planting and are allowed to feed for 4 days.
Seeds of the cultivar Arjuna are treated with 2.5 and 10 g/kg furathiocarb in either PVAc/PVAl or association polymer systems. Seeds are sown in the two soil types used in the tests of the hybrid Centaurus. H. virescens is again the test insect and the larvae are caged on individual leaves 10 and 14 days after planting; they are allowed to feed for 4 days. Only 10 g rates are tested at the second date.

corn rootworms = test: Field control of corn rootworms by insecticide/polymer combinations applied to the seed; assay type: in vivo, Diabrotica spp.; settings: maize G 4733, 0-6 scale, 63 days after planting
[2] = cultivar Arjuna, 98% Sand, time 1 week, Association Polymer, dosage 2.5 g
[3] = cultivar Arjuna, 98% Sand, time 1 week, Association Polymer, dosage 10 g
[4] = cultivar Arjuna, 98% Sand, time 1 week, PVAc/PVAl, dosage 2.5 g
[5] = cultivar Arjuna, 98% Sand, time 1 week, PVAc/PVAl, dosage 10 g
[6] = cultivar Arjuna, 98% Sand, time 2 weeks, Association Polymer, dosage 10 g
[7] = cultivar Arjuna, 98% Sand, time 2 weeks, PVAc/PVAl, dosage 10 g
[8] = cultivar Arjuna, Stein Earth, time 1 week, Association Polymer, dosage 2.5 g
[9] = cultivar Arjuna, Stein Earth, time 1 week, Association Polymer, dosage 10 g
[10] = cultivar Arjuna, Stein Earth, time 1 week, PVAc/PVAl, dosage 2.5 g
[11] = cultivar Arjuna, Stein Earth, time 1 week, PVAc/PVAl, dosage 10 g
[12] = cultivar Arjuna, Stein Earth, time 2 weeks, Association Polymer, dosage 10 g
[13] = cultivar Arjuna, Stein Earth, time 2 weeks, PVAc/PVAl, dosage 10 g
[14] = hybrid Centaurus, 98% Sand, time 1 week, Association Polymer, dosage 4 g
[15] = hybrid Centaurus, 98% Sand, time 1 week, Association Polymer, dosage 10 g
[16] = hybrid Centaurus, 98% Sand, time 1 week, PVAc/PVAl, dosage 4 g
[17] = hybrid Centaurus, 98% Sand, time 1 week, PVAc/PVAl, dosage 10 g
[18] = hybrid Centaurus, 98% Sand, time 2 weeks, Association Polymer, dosage 4 g
[19] = hybrid Centaurus, 98% Sand, time 2 weeks, Association Polymer, dosage 10 g
[20] = hybrid Centaurus, 98% Sand, time 2 weeks, PVAc/PVAl, dosage 4 g
[21] = hybrid Centaurus, 98% Sand, time 2 weeks, PVAc/PVAl, dosage 10 g
[22] = hybrid Centaurus, Stein Earth, time 1 week, Association Polymer, dosage 4 g
[23] = hybrid Centaurus, Stein Earth, time 1 week, Association Polymer, dosage 10 g
[24] = hybrid Centaurus, Stein Earth, time 1 week, PVAc/PVAl, dosage 4 g
[25] = hybrid Centaurus, Stein Earth, time 1 week, PVAc/PVAl, dosage 10 g
[26] = hybrid Centaurus, Stein Earth, time 2 weeks, Association Polymer, dosage 4 g
[27] = hybrid Centaurus, Stein Earth, time 2 weeks, Association Polymer, dosage 10 g
[28] = hybrid Centaurus, Stein Earth, time 2 weeks, PVAc/PVAl, dosage 4 g
[29] = hybrid Centaurus, Stein Earth, time 2 weeks, PVAc/PVAl, dosage 10 g
[30] = hybrid F7 x F2, 10 g/kg, 90% Sand, time 1 week, Association Polymer
[31] = hybrid F7 x F2, 10 g/kg, 90% Sand, time 1 week, PVAc/PVAl
[32] = hybrid F7 x F2, 10 g/kg, 90% Sand, time 2 weeks, Association Polymer
[33] = hybrid F7 x F2, 10 g/kg, 90% Sand, time 2 weeks, PVAc/PVAl
[34] = hybrid F7 x F2, 10 g/kg, 95% Sand, time 1 week, Association Polymer
[35] = hybrid F7 x F2, 10 g/kg, 95% Sand, time 1 week, PVAc/PVAl
[36] = hybrid F7 x F2, 10 g/kg, 95% Sand, time 2 weeks, Association Polymer
[37] = hybrid F7 x F2, 10 g/kg, 95% Sand, time 2 weeks, PVAc/PVAl
[38] = hybrid F7 x F2, 10 g/kg, 98% Sand, time 1 week, Association Polymer
[39] = hybrid F7 x F2, 10 g/kg, 98% Sand, time 1 week, PVAc/PVAl
[40] = hybrid F7 x F2, 10 g/kg, 98% Sand, time 2 weeks, Association Polymer
[41] = hybrid F7 x F2, 10 g/kg, 98% Sand, time 2 weeks, PVAc/PVAl
[42] = hybrid F7 x F2, 10 g/kg, 100% Sand, time 1 week, Association Polymer
[43] = hybrid F7 x F2, 10 g/kg, 100% Sand, time 1 week, PVAc/PVAl
[44] = hybrid F7 x F2, 10 g/kg, 100% Sand, time 2 weeks, Association Polymer
[45] = hybrid F7 x F2, 10 g/kg, 100% Sand, time 2 weeks, PVAc/PVAl

How did the “Percent survival of H. virescens larvae” value [1, 2] turn out when `CCCCOC(=O)N(C)SN(C)C(=O)Oc1cccc2c1OC(C)(C)C2` [furathiocarb] was run?
The value was 4%.

What about the “Scores of damage caused by H. virescens larvae” value (from here on “Scores of damage caused”) [1, 2] of the same compound?
The value was 2.1.

And the “Percent survival of H. virescens larvae” value [1, 3]?
The value was 6%.

What about the “Scores of damage caused” value [1, 3] of the same compound?
The value was 2.5.

What about the “Percent survival of H. virescens larvae” value [1, 4] of the same compound?
Its value is 50%.

What about the “Scores of damage caused” value [1, 4] of the same compound?
The value was 4.9.

And the “Percent survival of H. virescens larvae” value [1, 5]?
The value was 28%.

And the “Scores of damage caused” value [1, 5]?
Its value is 3.4.

What about the “Percent survival of H. virescens larvae” value [1, 6] of the same compound?
Its value is 8%.

And the “Scores of damage caused” value [1, 6]?
The value was 2.7.

What about the “Percent survival of H. virescens larvae” value [1, 7] of the same compound?
The value was 37%.

And the “Scores of damage caused” value [1, 7]?
Its value is 4.7.

What about the “Percent survival of H. virescens larvae” value [1, 8] of the same compound?
The value was 30%.

What about the “Scores of damage caused” value [1, 8] of the same compound?
Its value is 3.3.

And the “Percent survival of H. virescens larvae” value [1, 9]?
Its value is 2%.

What about the “Scores of damage caused” value [1, 9] of the same compound?
Its value is 1.8.

What about the “Percent survival of H. virescens larvae” value [1, 10] of the same compound?
Its value is 22%.

And the “Scores of damage caused” value [1, 10]?
The value was 3.3.

What about the “Percent survival of H. virescens larvae” value [1, 11] of the same compound?
Its value is 8%.

And the “Scores of damage caused” value [1, 11]?
Its value is 2.1.

And the “Percent survival of H. virescens larvae” value [1, 12]?
Its value is 9%.

And the “Scores of damage caused” value [1, 12]?
Its value is 2.7.

And the “Percent survival of H. virescens larvae” value [1, 13]?
Its value is 21%.

What about the “Scores of damage caused” value [1, 13] of the same compound?
The value was 3.5.

And the “Percent survival of H. virescens larvae” value [1, 14]?
Its value is 2%.

And the “Scores of damage caused” value [1, 14]?
The value was 1.5.

And the “Percent survival of H. virescens larvae” value [1, 15]?
Its value is 0%.

And the “Scores of damage caused” value [1, 15]?
Its value is 1.3.

What about the “Percent survival of H. virescens larvae” value [1, 16] of the same compound?
Its value is 8%.

What about the “Scores of damage caused” value [1, 16] of the same compound?
The value was 1.9.

What about the “Percent survival of H. virescens larvae” value [1, 17] of the same compound?
The value was 12%.

What about the “Scores of damage caused” value [1, 17] of the same compound?
The value was 2.0.

And the “Percent survival of H. virescens larvae” value [1, 18]?
Its value is 31%.

What about the “Scores of damage caused” value [1, 18] of the same compound?
The value was 4.1.

What about the “Percent survival of H. virescens larvae” value [1, 19] of the same compound?
Its value is 13%.

And the “Scores of damage caused” value [1, 19]?
Its value is 2.8.

What about the “Percent survival of H. virescens larvae” value [1, 20] of the same compound?
Its value is 46%.

And the “Scores of damage caused” value [1, 20]?
Its value is 5.5.

And the “Percent survival of H. virescens larvae” value [1, 21]?
Its value is 51%.

And the “Scores of damage caused” value [1, 21]?
Its value is 5.8.

What about the “Percent survival of H. virescens larvae” value [1, 22] of the same compound?
The value was 7%.

What about the “Scores of damage caused” value [1, 22] of the same compound?
The value was 1.9.

What about the “Percent survival of H. virescens larvae” value [1, 23] of the same compound?
Its value is 10%.

What about the “Scores of damage caused” value [1, 23] of the same compound?
Its value is 2.0.

What about the “Percent survival of H. virescens larvae” value [1, 24] of the same compound?
The value was 25%.

And the “Scores of damage caused” value [1, 24]?
The value was 2.8.

What about the “Percent survival of H. virescens larvae” value [1, 25] of the same compound?
The value was 10%.

And the “Scores of damage caused” value [1, 25]?
The value was 2.0.

And the “Percent survival of H. virescens larvae” value [1, 26]?
The value was 49%.

What about the “Scores of damage caused” value [1, 26] of the same compound?
The value was 4.4.

And the “Percent survival of H. virescens larvae” value [1, 27]?
Its value is 22%.

And the “Scores of damage caused” value [1, 27]?
Its value is 3.0.

And the “Percent survival of H. virescens larvae” value [1, 28]?
The value was 32%.

And the “Scores of damage caused” value [1, 28]?
The value was 3.9.

And the “Percent survival of H. virescens larvae” value [1, 29]?
Its value is 27%.

And the “Scores of damage caused” value [1, 29]?
The value was 3.4.

What about the “Percent survival of H. virescens larvae” value [1, 30] of the same compound?
The value was 34%.

What about the “Scores of damage caused” value [1, 30] of the same compound?
Its value is 4.9.

And the “Percent survival of H. virescens larvae” value [1, 31]?
Its value is 48%.

What about the “Scores of damage caused” value [1, 31] of the same compound?
The value was 6.0.

What about the “Percent survival of H. virescens larvae” value [1, 32] of the same compound?
Its value is 42%.

And the “Scores of damage caused” value [1, 32]?
Its value is 4.2.

And the “Percent survival of H. virescens larvae” value [1, 33]?
The value was 61%.

And the “Scores of damage caused” value [1, 33]?
The value was 4.9.

And the “Percent survival of H. virescens larvae” value [1, 34]?
Its value is 16%.

And the “Scores of damage caused” value [1, 34]?
The value was 3.2.

What about the “Percent survival of H. virescens larvae” value [1, 35] of the same compound?
The value was 48%.

And the “Scores of damage caused” value [1, 35]?
The value was 6.4.

And the “Percent survival of H. virescens larvae” value [1, 36]?
Its value is 50%.

And the “Scores of damage caused” value [1, 36]?
The value was 4.4.

What about the “Percent survival of H. virescens larvae” value [1, 37] of the same compound?
Its value is 64%.

What about the “Scores of damage caused” value [1, 37] of the same compound?
The value was 4.8.

What about the “Percent survival of H. virescens larvae” value [1, 38] of the same compound?
Its value is 16%.

What about the “Scores of damage caused” value [1, 38] of the same compound?
Its value is 4.2.

And the “Percent survival of H. virescens larvae” value [1, 39]?
The value was 36%.

And the “Scores of damage caused” value [1, 39]?
The value was 6.5.

What about the “Percent survival of H. virescens larvae” value [1, 40] of the same compound?
Its value is 37%.

And the “Scores of damage caused” value [1, 40]?
The value was 3.7.

And the “Percent survival of H. virescens larvae” value [1, 41]?
The value was 75%.

What about the “Scores of damage caused” value [1, 41] of the same compound?
Its value is 5.2.

What about the “Percent survival of H. virescens larvae” value [1, 42] of the same compound?
The value was 18%.

And the “Scores of damage caused” value [1, 42]?
Its value is 3.5.

And the “Percent survival of H. virescens larvae” value [1, 43]?
Its value is 40%.

What about the “Scores of damage caused” value [1, 43] of the same compound?
The value was 5.1.

And the “Percent survival of H. virescens larvae” value [1, 44]?
The value was 45%.

What about the “Scores of damage caused” value [1, 44] of the same compound?
The value was 4.0.

And the “Percent survival of H. virescens larvae” value [1, 45]?
The value was 42%.

And the “Scores of damage caused” value [1, 45]?
The value was 3.6.

What about the “Ratings for corn rootworm damage” value (corn rootworms; Granule, 0.1 g m⁻¹) of the same compound?
The value was 3.2.

And the “Ratings for corn rootworm damage” value (corn rootworms; seed treatment Association Polymer, 10 g/kg)?
Its value is 4.5.

What about the “Ratings for corn rootworm damage” value (corn rootworms; seed treatment PVAc/PVAl, 10 g/kg) of the same compound?
Its value is 4.1.

What about the “Ratings for corn rootworm damage” value (corn rootworms; seed treatment PVAc/PVAl, 30 g/kg) of the same compound?
Its value is 4.8.

Source: patent EP0302824A2 (priority 1987, dated 1989)
